Measurements taken from the supplement of paper PMC11451515.

System: NOMO1
Experiment: cell viability relative to DMSO control; higher = less cytotoxic
Conditions: 48 h
Method in brief: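 Viability is expressed as a percentage of DMSO wells within each plate, and cell-free wells serve as background. Seeding densities in the 1536-well plates (5 μl) were 500 cells/well for NOMO1 or SEM leukemia cells and 1000 cells/well for P12-Ichikawa. Each line was adapted for at least four passages in each medium. Library compounds in DMSO were pin-dosed at 47 μM to 0.79 nM (11 points, threefold), and CellTiter-Glo One luminescence was read after 48 h at 37°C.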

[1] = HPLM + 10% dialyzed FBS, 0.000781 µM
[2] = HPLM + 10% dialyzed FBS, 0.00234 µM
[3] = HPLM + 10% dialyzed FBS, 0.00702 µM
[4] = HPLM + 10% dialyzed FBS, 0.0211 µM
[5] = HPLM + 10% dialyzed FBS, 0.0632 µM
[6] = HPLM + 10% dialyzed FBS, 0.19 µM
[7] = HPLM + 10% dialyzed FBS, 0.569 µM
[8] = HPLM + 10% dialyzed FBS, 1.71 µM
[9] = HPLM + 10% dialyzed FBS, 5.12 µM
[10] = HPLM + 10% dialyzed FBS, 15.4 µM
[11] = HPLM + 10% dialyzed FBS, 46.1 µM
[12] = RPMI 5 mM glucose + 10% FBS, 0.000781 µM
[13] = RPMI 5 mM glucose + 10% FBS, 0.00234 µM
[14] = RPMI 5 mM glucose + 10% FBS, 0.00702 µM
[15] = RPMI 5 mM glucose + 10% FBS, 0.0211 µM
[16] = RPMI 5 mM glucose + 10% FBS, 0.0632 µM
[17] = RPMI 5 mM glucose + 10% FBS, 0.19 µM
[18] = RPMI 5 mM glucose + 10% FBS, 0.569 µM
[19] = RPMI 5 mM glucose + 10% FBS, 1.71 µM
[20] = RPMI 5 mM glucose + 10% FBS, 5.12 µM
[21] = RPMI 5 mM glucose + 10% FBS, 15.4 µM
[22] = RPMI 5 mM glucose + 10% FBS, 46.1 µM
[23] = RPMI 5 mM glucose + 10% dialyzed FBS, 0.000781 µM
[24] = RPMI 5 mM glucose + 10% dialyzed FBS, 0.00234 µM
[25] = RPMI 5 mM glucose + 10% dialyzed FBS, 0.00702 µM
[26] = RPMI 5 mM glucose + 10% dialyzed FBS, 0.0211 µM
[27] = RPMI 5 mM glucose + 10% dialyzed FBS, 0.0632 µM
[28] = RPMI 5 mM glucose + 10% dialyzed FBS, 0.19 µM
[29] = RPMI 5 mM glucose + 10% dialyzed FBS, 0.569 µM
[30] = RPMI 5 mM glucose + 10% dialyzed FBS, 1.71 µM
[31] = RPMI 5 mM glucose + 10% dialyzed FBS, 5.12 µM
[32] = RPMI 5 mM glucose + 10% dialyzed FBS, 15.4 µM
[33] = RPMI 5 mM glucose + 10% dialyzed FBS, 46.1 µM

Row | Structure (SMILES) | cell viability [1] [%] | cell viability [2] [%] | cell viability [3] [%] | cell viability [4] [%] | cell viability [5] [%] | cell viability [6] [%] | cell viability [7] [%] | cell viability [8] [%] | cell viability [9] [%] | cell viability [10] [%] | cell viability [11] [%] | cell viability [12] [%] | cell viability [13] [%] | cell viability [14] [%] | cell viability [15] [%] | cell viability [16] [%] | cell viability [17] [%] | cell viability [18] [%] | cell viability [19] [%] | cell viability [20] [%] | cell viability [21] [%] | cell viability [22] [%] | cell viability [23] [%] | cell viability [24] [%] | cell viability [25] [%] | cell viability [26] [%] | cell viability [27] [%] | cell viability [28] [%] | cell viability [29] [%] | cell viability [30] [%] | cell viability [31] [%] | cell viability [32] [%] | cell viability [33] [%]
1 | CCOCC(O)COc1ccc(NC(=O)CC[S+](C)C)cc1 (stereo not drawn) | 91.1 | 84.9 | 106 | 98.4 | 93.1 | 92.4 | 110 | 107 | 97 | 107 | 98.5 | 77.9 | 87.1 | 86.7 | 86.7 | 87.3 | 82.1 | 89.7 | 80.8 | 91 | 94.3 | 84.2 | 82.1 | 81.8 | 78.1 | 96.5 | 90.6 | 90.7 | 86.3 | 84.4 | 95.3 | 80.1 | 85.9
2 | CC(C)c1c(C(=O)Nc2ccccc2)c(-c2ccccc2)c(-c2ccc(F)cc2)n1CC[C@@H](O)C[C@@H](O)CC(=O)[O-] | 109 | 108 | 118 | 112 | 94.4 | 97.4 | 100 | 97.2 | 88.4 | 75.6 | 52.4 | 96.4 | 91.3 | 94.6 | 90.8 | 88.2 | 116 | 97.6 | 80.1 | 83.7 | 83.5 | 61.5 | 90.4 | 100 | 90.9 | 89.6 | 102 | 103 | 92.2 | 77.9 | 73.9 | 67.3 | 48.4
3 | CC[C@H]1CN2CCc3cc(OC)c(OC)cc3[C@@H]2C[C@@H]1C[C@H]1NCCc2cc(OC)c(OC)cc21 | 95.5 | 105 | 101 | 107 | 104 | 98.5 | 54.7 | 22.7 | 8.84 | 10.8 | 7.47 | 103 | 127 | 122 | 109 | 121 | 111 | 50.4 | 27 | 11.4 | 9.75 | 8.48 | 106 | 102 | 98.3 | 123 | 118 | 109 | 47.5 | 27.8 | 14.9 | 9.41 | 8.82
4 | OCCN(CCO)c1nc(N2CCCCC2)c2nc(N(CCO)CCO)nc(N3CCCCC3)c2n1 | 128 | 112 | 104 | 128 | 115 | 112 | 120 | 111 | 94.5 | 105 | 46.4 | 120 | 129 | 119 | 107 | 114 | 113 | 105 | 114 | 111 | 113 | 92.4 | 113 | 115 | 117 | 115 | 113 | 114 | 121 | 114 | 114 | 110 | 68
5 | Cn1cnc([N+](=O)[O-])c1Sc1ncnc2nc[nH]c12 | 79.8 | 79.6 | 107 | 99.1 | 109 | 93.9 | 114 | 89.9 | 6.49 | 6.93 | 7.54 | 79.6 | 87.5 | 91.3 | 96.6 | 85.1 | 95.6 | 82.8 | 73.1 | 57.4 | 6.27 | 5.14 | 88.9 | 96.7 | 93.3 | 90 | 98.6 | 92.2 | 90 | 77.9 | 48.6 | 6.5 | 6.03
6 | Clc1ccccc1C(c1ccccc1)(c1ccccc1)n1ccnc1 | 120 | 115 | 125 | 123 | 116 | 114 | 123 | 105 | 108 | 101 | 78.6 | 103 | 122 | 114 | 122 | 111 | 110 | 114 | 103 | 95 | 92.7 | 69.1 | 119 | 114 | 119 | 110 | 116 | 117 | 124 | 104 | 113 | 111 | 80.3
